Measurements from US20260041679A1, “METHOD OF TREATING HYPERTENSION WITH THE ALDOSTERONE SYNTHASE INHIBITOR BAXDROSTAT” (CINCOR PHARMA, INC., priority 2022, published 2026).
Read-outs that look alike come from different tables or passages of the source. Marks after values point to notes of the source that are not given here.

Tests used:
Type in all cases: in vivo, human
[1] = Pharmacokinetics in subjects with moderate hepatic impairment vs normal hepatic function (Example 5); conditions: for CL renal / Cmax / AUC(0-inf) / Tmax: human, oral, 10 mg; for CL renal: plasma and urine, read-out: CLR, geometric mean (% CV) (converted); for CL renal / Cmax / AUC(0-inf) / Tmax / CL/F, geometric mean (% CV): single 10 mg; for Cmax / AUC(0-inf) / Tmax: plasma; for Cmax: read-out: Cmax, geometric mean (% CV); for AUC(0-inf): read-out: AUC(0-inf), geometric mean (% CV); for Tmax: read-out: Tmax, arithmetic mean (SD)
Method: Subjects with moderate hepatic impairment (Child-Pugh Category B, n=10) and healthy controls (n=10) were each given a single 10 mg oral dose of baxdrostat. Subjects were matched by age, sex, body mass index, race, and smoking status. Serial blood and urine samples were collected to determine plasma and urine concentrations of baxdrostat for 7 days postdose. Safety was assessed based on adverse events, clinical laboratory evaluations, vital signs, electrocardiogram and physical examinations.

[2] = Safety in subjects with varying degrees of renal function (Example 4)
Method: Safety was assessed throughout the study based on adverse events, physical examinations, ECG, seated and orthostatic vital signs, weight measurements, and clinical laboratory evaluations

[3] = Pharmacokinetics in subjects with varying degrees of renal function (Example 4); conditions: for half-life / Tmax / AUC(0-inf) / AUC(0-t) / Cmax / Vd/F: human, plasma, oral, 10 mg; for AUC(0-inf): read-out: AUC0-inf, mean (SD); for AUC(0-t): read-out: AUC0-last, mean (SD); for Cmax: read-out: Cmax, mean (SD); for Vd/F: read-out: Vz/F, mean (SD)
Method: This phase 1, open-label, single-dose, parallel-group study was designed in accordance with the FDA guidance for the design and analysis of studies that assess the influence of impaired renal function on PK. Subjects were enrolled into three renal function groups defined based on eGFR calculated using the Chronic Kidney Disease Epidemiology Collaboration equation as follows: […]
Control(normal renal function or mild renal impairment:eGFR≥60 mL/min) • Moderate to severe renal impairment (eGFR 15 to 59 mL/min) • Kidney failure (eGFR<15 mL/min, including subjects on dialysis)
All subjects received a single 10 mg dose of baxdrostat in an open-label manner. […] All subjects were required to fast for a minimum of 10 hours prior to baxdrostat administration. They were then dosed at 8:00 AM (±2 hours) with two 5 mg tablets administered with approximately 240 mL of water. Subjects continued fasting for a minimum of 4 hours after dosing. No other medications were permitted within 2 hours prior to dosing and for 2 hours after dosing with baxdrostat. Subjects on dialysis received the study drug on a non-dialysis day. Blood and urine sample collection for PK analysis continued for 7 days and was proceeded by a follow-up phone call 3±1 days after clinic discharge.
Plasma and urine samples were analyzed to measure concentrations of baxdrostat and its primary metabolite (baxdrostat-M) using a validated LC-MS/MS method. “Baxdrostat-M” as used herein refers a compound having the following structure:
Blood and urine samples were collected prior to and after dosing for measurement of plasma and urine baxdrostat and baxdrostat-M concentrations to characterize maximum observed plasma concentration (Cmax), time to Cmax (Tmax), AUC0-last, and AUC0-inf for baxdrostat and baxdrostat-M. The t1/2, CL/F, and V/F were calculated for plasma baxdrostat only. Urine PK parameters included the cumulative amount of baxdrostat and baxdrostat-M excreted in urine (Ae), renal clearance (CLR) of baxdrostat and baxdrostat-M, and fraction of dose excreted renally (Fe) for baxdrostat.

[4] = Absorption, metabolism and excretion of [14C]-baxdrostat (Example 7)
Method: Eight male subjects each received a single oral 10 mg (containing approximately 100 uCi) dose of baxdrostat. Blood, urine and fecal samples were collected to determine the metabolic and excretion pathways of baxdrostat. Preliminary findings indicate that the mean excretion of radioactivity was 69.4% and 15.3%, of the dose in the urine and feces, respectively. Unchanged baxdrostat was the major component in urine and feces, constituting 16.8% and 6.1% of the dose, respectively.

[5] = moderate hepatic impairment vs normal hepatic function
[6] = control eGFR ≥60 mL/min (n = 10)
[7] = moderate to severe renal impairment (n = 11)
[8] = single 10 mg, all renal function groups
[9] = control eGFR ≥60 mL/min, single 10 mg
[10] = kidney failure eGFR <15 mL/min, single 10 mg
[11] = moderate to severe renal impairment eGFR 15-59 mL/min, single 10 mg
[12] = single oral 10 mg [14C] dose, preliminary findings

CCC(=O)N[C@@H]1CCCc2c(-c3ccc4c(c3)CCC(=O)N4C)cncc21 [baxdrostat, (R)—N-(4-(1-methyl-2-oxo-1,2,3,4-tetrahydroquinolin-6-yl)-5,6,7,8-tetrahydroisoquinolin-8-yl) propionamide]
CL renal ([1]; moderate hepatic impairment): 4.98 mL/min
CL renal ([1]; normal hepatic function): 6.02 mL/min
Cmax ([1]; moderate hepatic impairment (n = 10)): 119 ng/mL
AUC(0-inf) ([1]; moderate hepatic impairment): 3570 ng·h/mL
Tmax ([1]; moderate hepatic impairment): 2.15 h
Cmax ([1]; normal hepatic function (n = 10)): 104 ng/mL
AUC(0-inf) ([1]; normal hepatic function): 3780 ng·h/mL
Tmax ([1]; normal hepatic function): 2.55 h
AUC(0-inf), ratio of GLSM (90% CI) [1, 5]: 0.95 (0.73, 1.23)
Cmax, ratio of GLSM (90% CI) [1, 5]: 1.1 (0.97, 1.32)
CL/F, geometric mean (% CV) ([1]; moderate hepatic impairment): 2.80 (30.1) L/hr
CL/F, geometric mean (% CV) ([1]; normal hepatic function): 2.64 (24.7) L/hr
Diarrhea, n (%) ([2]; Total (n = 33)): 1 (3.0) n (%)
Metabolic encephalopathy, n (%) ([2]; Total (n = 33)): 1 (3.0) n (%)
Subjects with any TEAEs, n (%) ([2]; Total (n = 33)): 2 (6.1) n (%)
Tremor, n (%) ([2]; Total (n = 33)): 1 (3.0) n (%)
Diarrhea, n (%) [2, 6]: 1 (10.0) n (%)
Metabolic encephalopathy, n (%) [2, 6]: 0 (0.0) n (%)
Subjects with any TEAEs, n (%) [2, 6]: 1 (10.0) n (%)
Tremor, n (%) [2, 6]: 0 (0.0) n (%)
Diarrhea, n (%) ([2]; kidney failure (n = 12)): 0 (0.0) n (%)
Subjects with any TEAEs, n (%) ([2]; kidney failure (n = 12)): 1 (8.3) n (%)
Metabolic encephalopathy, n (%) ([2]; kidney failure (n = 12), considered severe and unrelated to the study drug): 1 (8.3) n (%)
Tremor, n (%) ([2]; kidney failure (n = 12), unrelated to the study drug): 1 (8.3) n (%)
Diarrhea, n (%) [2, 7]: 0 (0.0) n (%)
Metabolic encephalopathy, n (%) [2, 7]: 0 (0.0) n (%)
Subjects with any TEAEs, n (%) [2, 7]: 0 (0.0) n (%)
Tremor, n (%) [2, 7]: 0 (0.0) n (%)
deaths and drug-related treatment-emergent adverse events [2, 8]: no deaths and only one mild drug-related treatment-emergent adverse event (diarrhea)
laboratory values, vital signs, physical examinations, ECGs [2, 8]: no clinically meaningful changes
recovered unchanged in the urine ([3]; control and moderate to severe renal impairment groups): Approximately 12%
CL/F, mean (SD) [3, 9]: 3.06 (0.9) L/h
Fe (urine), mean (CV %) [3, 9]: 12.53 (38.1) %
half-life ([3]; across renal function groups, read-out: average half-life): 30 to 42 h
Tmax ([3]; all renal function groups, single 10 mg, read-out: median Tmax): ≤ 1.5 h
AUC(0-inf) [3, 9]: 3530 ng·h/mL
AUC(0-t) [3, 9]: 3380 ng·h/mL
Cmax [3, 9]: 108 ng/mL
Tmax ([3]; control eGFR ≥60 mL/min, single 10 mg, read-out: Tmax, mean (SD)): 2.1 h
Vd/F [3, 9]: 146 L
half-life ([3]; control eGFR ≥60 mL/min, single 10 mg, read-out: t1/2, mean (SD) (converted)): 35.6 h
AUC(0-inf) [3, 10]: 2660 ng·h/mL
AUC(0-t) [3, 10]: 2570 ng·h/mL
Cmax [3, 10]: 96 ng/mL
Tmax ([3]; kidney failure eGFR <15 mL/min, single 10 mg, read-out: Tmax, mean (SD)): 1.63 h
Vd/F [3, 10]: 200 L
AUC(0-inf) [3, 11]: 4340 ng·h/mL
AUC(0-t) [3, 11]: 4010 ng·h/mL
Cmax [3, 11]: 110 ng/mL
Tmax ([3]; moderate to severe renal impairment eGFR 15-59 mL/min, single 10 mg, read-out: Tmax, mean (SD)): 1.82 h
Vd/F [3, 11]: 142 L
half-life ([3]; moderate to severe renal impairment eGFR 15-59 mL/min, single 10 mg, read-out: t1/2, mean (SD) (converted)): 42.1 h
CL/F, mean (SD) [3, 10]: 5.07 (2.9) L/h
Fe (urine), mean (CV %) [3, 10]: 0.91 (60.7)* %
t1/2, mean (SD) [3, 10]: 29.70 (10.5) h
renal excretion ([3]; kidney failure group): minimal renal excretion
CL/F, mean (SD) [3, 11]: 2.60 (1.0) L/h
Fe (urine), mean (CV %) [3, 11]: 11.81 (26.0) %
effect of renal impairment on Cmax, AUC, half-life, apparent plasma clearance, renal clearance ([3]; pairwise comparisons versus control): no meaningful effect
mean blood:plasma concentration ratios ([4]; radioactivity): low association of radioactivity with blood cells
share of total systemic exposure by AUC0-inf in plasma ([4]; single oral 10 mg [14C] dose): 71%
unchanged baxdrostat in feces ([4]; single oral 10 mg [14C] dose): 6.1 % of the dose
unchanged baxdrostat in urine ([4]; single oral 10 mg [14C] dose): 16.8 % of the dose
mean excretion of radioactivity in feces [4, 12]: 15.3 % of the dose
mean excretion of radioactivity in urine [4, 12]: 69.4 % of the dose
